Assay results reported in US6737383B1, “Herbicidal oxadiazolidines” (priority 1999, dated 2004).

Assays:
dallisgrass = test: Test D dallisgrass; assay type: in vivo, Paspalum dilatatum; settings: Preemergence, 0 to 100 scale
Outline: (§1)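 Seeds were sown in greenhouse pots, one species per pot or compartment. Compounds were in a non-phytotoxic solvent mixture with surfactant; preemergence applications went on the sandy loam surface within one day of planting. Injury was rated visually after 14 to 21 days, 0 (none) to 100 (complete control).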

bermuda-grass = test: Test D bermudagrass; assay type: in vivo, Cynodon dactylon; settings: Preemergence, 0 to 100 scale
Outline: as §1

common ragweed = test: Test D common ragweed; assay type: in vivo, Ambrosia elatior; settings: Preemergence, 0 to 100 scale
Outline: as §1

itchgrass = test: Test D itchgrass; assay type: in vivo, Rottboellia exaltata; settings: Preemergence, 0 to 100 scale
Outline: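 Scoring used a 0–100 visual injury scale, with 0 meaning no effect and 100 complete control, assessed 14–21 days after application alongside untreated pots. Preemergence treatments went onto sandy loam surfaces of separately potted seeds within a day of sowing.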

goosegrass = test: Test D goosegrass; assay type: in vivo, Eleusine indica; settings: Preemergence, 0 to 100 scale
Outline: as §1

purple nutsedge = test: Test D purple nutsedge; assay type: in vivo, Cyperus rotundus; settings: Preemergence, 0 to 100 scale
Outline: as §1

tall mallow = test: Test D tall mallow; assay type: in vivo, Malva sylvestris; settings: Preemergence, 0 to 100 scale
Outline: as §1

Alexandergrass = test: Test D Alexandergrass; assay type: in vivo, Brachiaria plantaginea; settings: Preemergence, 0 to 100 scale
Outline: as §1

pitted morningglory = test: Test D pitted morningglory; assay type: in vivo, Ipomoea lacunosa; settings: Preemergence, 0 to 100 scale
Outline: as §1

Green foxtail [1] = test: Test D green foxtail; assay type: in vivo
Outline: as §1

surinam grass = test: Test D surinam grass; assay type: in vivo, Brachiaria decumbens; settings: Preemergence, 0 to 100 scale
Outline: as §1

common groundsel = test: Test D common groundsel; assay type: in vivo, Senecio vulgaris; settings: Preemergence, 0 to 100 scale
Outline: as §1

Johnson grass = test: Test D Johnson grass; assay type: in vivo, Sorghum halepense; settings: Preemergence, 0 to 100 scale
Outline: as §1

guineagrass = test: Test D guineagrass; assay type: in vivo, Panicum maximum; settings: Preemergence, 0 to 100 scale
Outline: as §1

Green foxtail [2] = test: Test D green foxtail; assay type: in vivo; settings: Rate 250 g/ha; Preemergence; 0 to 100 scale
Outline: as §1

[3] = Rate 16 g/ha, 0 no injury, 100 complete control
[4] = Rate 32 g/ha, 0 no injury, 100 complete control
[5] = Rate 64 g/ha, 0 no injury, 100 complete control
[6] = Rate 125 g/ha, 0 no injury, 100 complete control
[7] = Rate 64 g/ha, Preemergence; 0 to 100 scale, 0 no injury, 100 complete control
[8] = Rate 125 g/ha, Preemergence; 0 to 100 scale, 0 no injury, 100 complete control

CCCn1c(=O)on(C(=O)N(c2ccc(Cl)cc2)C(C)C)c1=O [Compound 119]
Plant response rating, Dallisgrass (dallisgrass; [3]): 30
Plant response rating, Dallisgrass (dallisgrass; [4]): 65
Plant response rating, Dallisgrass (dallisgrass; [5]): 85
Plant response rating, Dallisgrass (dallisgrass; [6]): 90
Plant response rating, Dallisgrass (dallisgrass; Rate 250 g/ha): 98
Plant response rating, Bermudagrass (bermuda-grass; [3]): 50
Plant response rating, Bermudagrass (bermuda-grass; [4]): 65
Plant response rating, Bermudagrass (bermuda-grass; [5]): 100
Plant response rating, Bermudagrass (bermuda-grass; [6]): 100
Plant response rating, Bermudagrass (bermuda-grass; Rate 250 g/ha): 100
Plant response rating, C. ragweed (common ragweed; [3]): 0
Plant response rating, C. ragweed (common ragweed; [4]): 0
Plant response rating, C. ragweed (common ragweed; [5]): 0
Plant response rating, C. ragweed (common ragweed; [6]): 0
Plant response rating, C. ragweed (common ragweed; Rate 250 g/ha): 0
Plant response rating, Itchgrass (itchgrass; [3]): 0
Plant response rating, Itchgrass (itchgrass; [4]): 10
Plant response rating, Itchgrass (itchgrass; [5]): 50
Plant response rating, Itchgrass (itchgrass; [6]): 60
Plant response rating, Itchgrass (itchgrass; Rate 250 g/ha): 75
Plant response rating, Goosegrass (goosegrass; [3]): 30
Plant response rating, Goosegrass (goosegrass; [4]): 85
Plant response rating, Goosegrass (goosegrass; [5]): 98
Plant response rating, Goosegrass (goosegrass; [6]): 100
Plant response rating, Goosegrass (goosegrass; Rate 250 g/ha): 100
Plant response rating, Purple nutsedge (purple nutsedge; [3]): 0
Plant response rating, Purple nutsedge (purple nutsedge; [4]): 0
Purple nutsedge plant response rating (purple nutsedge; [5]): 0
Purple nutsedge plant response rating (purple nutsedge; [6]): 0
Plant response rating, Purple nutsedge (purple nutsedge; Rate 250 g/ha): 0
Plant response rating, Tall Mallow (tall mallow; [3]): 0
Plant response rating, Tall Mallow (tall mallow; [4]): 0
Tall Mallow plant response rating (tall mallow; [5]): 0
Tall Mallow plant response rating (tall mallow; [6]): 0
Plant response rating, Tall Mallow (tall mallow; Rate 250 g/ha): 0
Plant response rating, Alexandergrass (Alexandergrass; [3]): 0
Plant response rating, Alexandergrass (Alexandergrass; [4]): 50
Plant response rating, Alexandergrass (Alexandergrass; [5]): 75
Plant response rating, Alexandergrass (Alexandergrass; [6]): 98
Plant response rating, Alexandergrass (Alexandergrass; Rate 250 g/ha): 100
Plant response rating, P. morninglory (pitted morningglory; [3]): 0
Plant response rating, P. morninglory (pitted morningglory; [4]): 0
Plant response rating, P. morninglory (pitted morningglory; [5]): 0
Plant response rating, P. morninglory (pitted morningglory; [6]): 0
Plant response rating, P. morninglory (pitted morningglory; Rate 250 g/ha): 0
Plant response rating, Green foxtail (Green foxtail [1]; Preemergence; Rate 16 g/ha; 0 to 100 scale, 0 no injury, 100 complete control): 10
Plant response rating, Green foxtail (Green foxtail [1]; Preemergence; Rate 32 g/ha; 0 to 100 scale, 0 no injury, 100 complete control): 75
Plant response rating, Green foxtail (Green foxtail [1]; Rate 16 g/ha; Preemergence; 0 to 100 scale, 0 no injury, 100 complete control): 10
Plant response rating, Green foxtail (Green foxtail [1]; Rate 32 g/ha; Preemergence; 0 to 100 scale, 0 no injury, 100 complete control): 100
Green foxtail plant response rating (Green foxtail [1]; [7]): 90
Plant response rating, Green foxtail (Green foxtail [1]; [7]): 90
Green foxtail plant response rating (Green foxtail [1]; [8]): 100
Plant response rating, Green foxtail (Green foxtail [1]; [8]): 100
Plant response rating, Green foxtail (Green foxtail [1]; Rate 250 g/ha; Preemergence; 0 to 100 scale): 100
Plant response rating, Surinam grass (surinam grass; [3]): 0
Plant response rating, Surinam grass (surinam grass; [4]): 0
Surinam grass plant response rating (surinam grass; [5]): 50
Surinam grass plant response rating (surinam grass; [6]): 85
Plant response rating, Surinam grass (surinam grass; Rate 250 g/ha): 98
Plant response rating, Com. groundsel (common groundsel; [3]): 85
Plant response rating, Com. groundsel (common groundsel; [4]): 98
Plant response rating, Com. groundsel (common groundsel; [5]): 100
Plant response rating, Com. groundsel (common groundsel; [6]): 100
Plant response rating, Com. groundsel (common groundsel; Rate 250 g/ha): 100
Plant response rating, Johnsongrass (Johnson grass; [3]): 0
Plant response rating, Johnsongrass (Johnson grass; [4]): 0
Plant response rating, Johnsongrass (Johnson grass; [5]): 65
Plant response rating, Johnsongrass (Johnson grass; [6]): 75
Plant response rating, Johnsongrass (Johnson grass; Rate 250 g/ha): 85
Plant response rating, Guineagrass (guineagrass; [3]): 65
Plant response rating, Guineagrass (guineagrass; [4]): 75
Plant response rating, Guineagrass (guineagrass; [5]): 85
Plant response rating, Guineagrass (guineagrass; [6]): 98
Plant response rating, Guineagrass (guineagrass; Rate 250 g/ha): 98
Plant response rating, Green foxtail (Green foxtail [2]): 100
